Consider six molecules from PMC8936434 (Frontiers in Pharmacology, 2022).

Series [1] concerns HepG2 cells. The series can be described thus: LDH release from HepG2 cells. In kind it is cell-based, Human.
For series [2], the target named is hERG K+ channel (Kv11.1) (Homo sapiens, UniProt Q12809). Kind of series: hERG (Kv11.1) current, whole-cell patch-clamp in hERG-HEK293 cells. The class given is cell-based. The protocol: hERG-HEK293 cells (BPS Bioscience, San Diego, United States), expressing hERG K^+ channel (Kv11.1), were cultured in Minimal Essential Medium (MEM) supplemented with 10% fetal bovine serum, 1% non-essential amino acids, 1% Na pyruvate, 1% penicillin/streptomycin, and 400 μg/ml geneticin ([Lazzerini et al., 2021]).
hERG K+ channel (Kv11.1), sequence (Q12809 whole entry): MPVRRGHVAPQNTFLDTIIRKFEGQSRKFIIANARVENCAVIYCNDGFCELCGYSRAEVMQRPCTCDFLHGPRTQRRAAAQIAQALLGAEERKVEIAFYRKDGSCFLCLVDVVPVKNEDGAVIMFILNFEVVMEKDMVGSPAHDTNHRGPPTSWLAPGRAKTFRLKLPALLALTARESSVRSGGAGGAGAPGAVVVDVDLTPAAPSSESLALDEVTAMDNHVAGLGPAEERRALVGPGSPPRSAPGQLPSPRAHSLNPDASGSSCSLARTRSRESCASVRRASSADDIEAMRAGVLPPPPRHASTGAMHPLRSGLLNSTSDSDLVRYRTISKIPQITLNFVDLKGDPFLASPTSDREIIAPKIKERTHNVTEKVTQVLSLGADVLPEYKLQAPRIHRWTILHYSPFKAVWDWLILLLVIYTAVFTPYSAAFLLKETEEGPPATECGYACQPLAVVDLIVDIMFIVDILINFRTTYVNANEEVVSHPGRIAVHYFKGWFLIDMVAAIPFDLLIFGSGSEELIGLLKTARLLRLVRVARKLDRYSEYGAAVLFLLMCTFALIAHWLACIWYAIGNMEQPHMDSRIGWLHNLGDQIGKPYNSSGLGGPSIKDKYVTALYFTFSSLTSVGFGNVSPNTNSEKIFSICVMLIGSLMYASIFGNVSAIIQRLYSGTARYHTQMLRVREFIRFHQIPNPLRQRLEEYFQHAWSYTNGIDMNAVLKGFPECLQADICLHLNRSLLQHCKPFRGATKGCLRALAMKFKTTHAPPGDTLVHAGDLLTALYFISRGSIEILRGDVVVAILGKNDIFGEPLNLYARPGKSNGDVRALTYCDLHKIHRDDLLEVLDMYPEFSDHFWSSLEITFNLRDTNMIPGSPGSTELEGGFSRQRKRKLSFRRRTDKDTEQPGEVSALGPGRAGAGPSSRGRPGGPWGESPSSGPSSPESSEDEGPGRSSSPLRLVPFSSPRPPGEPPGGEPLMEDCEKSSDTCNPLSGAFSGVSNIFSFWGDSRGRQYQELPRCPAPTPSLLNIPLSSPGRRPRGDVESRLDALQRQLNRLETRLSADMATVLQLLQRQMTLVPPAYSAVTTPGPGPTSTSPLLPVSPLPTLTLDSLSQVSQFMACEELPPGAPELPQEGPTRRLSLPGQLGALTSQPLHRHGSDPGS
The bath solution contained (in mM): 136 NaCl, 5.4 KCl, 10 HEPES, 10 D-glucose ∙ H2O, 1 CaCl2 ∙ 2 H2O, 1 MgCl2 ∙ 6 H2O, pH 7.4 with NaOH, whereas the pipette solution consisted of (in mM): 130 KCl, 10 EGTA, 10 HEPES, 5 MgATP, 1 MgCl2 ∙ 6 H2O, pH 7.2 with KOH.
Whole-cell recording was performed as previously described ([Lazzerini et al., 2021]), and a depolarizing step from a holding potential of […] was applied to elicit the Kv11.1 current. Tail current was evoked by repolarizing the cell membrane to −50 mV for 4 s.

The subject of series [3] is primary rat hepatocytes. The series can be described thus: LDH release from primary rat hepatocytes. In kind it is cell-based.
Series [4] in a line: In vitro P-gp assay: antiproliferative activity in P-gp-overexpressing SW1573/P-gp cells. As to conditions: human. The protocol: (§1) Compounds were tested against both cell lines in the presence or absence of 10 µM verapamil (a known P-gp and CYP3A4/5 inhibitor).
Series [5] relates to primary rat hepatocytes. The series can be described thus: Primary rat hepatocyte viability (trypan blue exclusion assay). The class given is cell-based. The settings on record: read-out: IC50, number of viable cells.
For series [6], the system named is SW1573. Kind of series: In vitro P-gp assay: antiproliferative activity in wild-type SW1573 cells. In kind it is cell-based. The settings on record: Homo sapiens. The protocol:
as §1

The subject of series [7] is zebrafish ABCB4. Further details: method as in earlier work. The settings on record: concentrations up to 100 µM; ref [67]; cited from earlier work.
For series [8], the system named is HepG2 cells. Kind of series: HepG2 cell viability (MTT assay). In kind it is cell-based. As to conditions: Homo sapiens, mean ± SD, 3 experiments. The protocol:
Human hepatoma (HepG2) cells (European Collection of Authenticated Cell Cultures) were cultured in Dulbecco’s modified Eagle’s medium (DMEM) supplemented with 10% heat-inactivated fetal bovine serum (FBS) and 2 mM L-glutamine at 37°C in 5% CO2 humidified atmosphere.

Series [9] has as its system primary rat hepatocytes. Kind of series: Lipid peroxidation (MDA) in primary rat hepatocytes. The settings on record: compared to Dox.
In series [10] the target is recombinant human CYP3A4 (Homo sapiens, UniProt P08684). The series can be described thus: In vitro inhibition of human CYP3A4.
recombinant human CYP3A4, sequence (P08684 whole entry): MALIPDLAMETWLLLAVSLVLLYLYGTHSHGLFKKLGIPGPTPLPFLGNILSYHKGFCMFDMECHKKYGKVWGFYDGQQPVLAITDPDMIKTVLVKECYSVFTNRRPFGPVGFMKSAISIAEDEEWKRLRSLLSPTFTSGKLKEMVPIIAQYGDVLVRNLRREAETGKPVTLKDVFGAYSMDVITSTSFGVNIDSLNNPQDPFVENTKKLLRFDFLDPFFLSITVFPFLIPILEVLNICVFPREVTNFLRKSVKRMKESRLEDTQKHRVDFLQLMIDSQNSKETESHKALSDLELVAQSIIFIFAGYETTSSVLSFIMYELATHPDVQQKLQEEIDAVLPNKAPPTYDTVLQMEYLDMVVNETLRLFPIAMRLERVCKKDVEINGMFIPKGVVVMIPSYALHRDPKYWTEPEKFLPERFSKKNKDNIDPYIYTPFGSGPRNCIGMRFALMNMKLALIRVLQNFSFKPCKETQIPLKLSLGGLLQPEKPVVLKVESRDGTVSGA
Procedure: Kinetic assays were carried out in a final volume of 100 µl containing 10 µM substrate, 2.5 nM recombinant CYP3A4, various concentrations of the tested compounds, and 20% NADPH regenerating system in 100 mM Tris–HCl (pH 7.4). Incubations took place in duplicate at 37°C in 96-multiwell plates; fluorescence was measured with a Victor2 plate reader (PerkinElmer Life Sciences, Turku, Finland). The reaction was started by adding NADPH, and fluorescence was measured at 2-min intervals for 40 min using excitation at 405 nm and emission at 460 nm.
Series [11] has as its system primary rat hepatocytes. The series can be described thus: GSH depletion in isolated rat hepatocytes. The class given is cell-based. As to conditions: compared to Dox. The protocol:
Gluthatione (GSH) depletion was evaluated after 24, 48, or 72 h treatment with both anthracyclines. Isolated rat hepatocytes were centrifuged at 400 g for 3 min, and the pellet was used for measuring intracellular GSH by means of the spectrophotometric method based on the conversion of the sulfhydryl reagent 5,5′-dithiobis-(2-nitrobenzoic acid) (DTNB) to the yellow derivative 5′-thio-2-nitrobenzoic acid (TNB) at 412 nm ([Fau et al., 1992]).

Series [12] relates to SW1573/P-gp. The series can be described thus: In vitro P-gp assay: antiproliferative activity in P-gp-overexpressing SW1573/P-gp cells. As to conditions: P-gp-overexpressing cells. The protocol:
as §1

Series [13] has as its system zebrafish embryos. The series can be described thus: Zebrafish embryo toxicity.
Procedure: After 30 min, the eggs were collected, rinsed twice from debris using fresh embryo medium (Instant ocean), and transferred into Petri dishes containing the embryo medium.
Fertilized eggs were selected under a binocular stereomicroscope (PXS-VI, Optica) and transferred into 24-well plates. […] The embryo medium and 0.1% DMSO were used as controls. Treated embryos and controls were then incubated at 28 ± 0.5°C. Each experiment was repeated three times from three independent breedings. In each experiment, at least 3 wells with 12 embryos per treatment per concentration were used.
The zebrafish embryo toxicity assay was performed when fertilization rate was ≥90%. An assay was considered valid if the overall survival of embryos in negative controls was ≥90% until hatching.
All embryos were inspected for morphological characteristics at different developmental stages (48 and 72 hpf) as described by [Kimmel (1989)]. Lethal and teratogenic effects were recorded according to the Organisation for Economic Co-operation and Development (OECD) (236) guidelines for testing of chemicals. Mortality was determined by counting embryos with or without a visible heart beat at 72 hpf. For visual documentation of the malformations and heartbeat, embryos were imaged and recorded using a camera connected to the microscope (CKX41; Olympus, Tokyo, Japan). Each heartbeat was manually counted for 20 s and multiplied by 3 to calculate heart rate (beat/minute) ([Hoage et al., 2012]). At least three embryos per group were recorded and their heart beat counted.
Setting [14] is: 10 µM applied at 6 hpf, read at 72 hpf.

Each structure is given as a SMILES string. Read-outs that look alike come from different tables or passages of the source.

In the case of `COc1cccc2c1C(=O)c1c(O)c3c(c(O)c1C2=O)C[C@@](O)(C(=O)CO)C[C@@H]3O[C@H]1C[C@H](N)[C@H](O)[C@H](C)O1` [Dox, doxorubicin], in series [1] (HepG2, regardless of timing of exposure (24, 48, 72 h)), the “LDH release (cytotoxicity) compared with Sdox” value is reported as “cytotoxic at concentrations lower than those of Sdox”. Further, in series [2] (up to 100 μM), the “Effect on hERG currents” value is “did not affect”. The “Release of LDH” value in series [3] is on record as “increased the release of LDH in a concentration-dependent manner”. In series [4], the 50% growth inhibitory concentration (GI50) at 48 h was found to be 1600 nM. Moreover, the IC50 in series [5] came out at 9680 ± 890 nM; in [8] (24 h), 6110 ± 660 nM; in series [8] (48 h), 460 ± 30 nM; in [8] (72 h), 190 ± 10 nM. Further, in [6] (SW1573, 48 h), halving of growth (GI50) required 70 ± 8.6 nM. Moreover, the “Effect on zebrafish ABCB4 ATPase activity” value in series [7] is reported as “no major effect”.

Take `CC[C@]1(O)C[C@@H]2CN(CCc3c([nH]c4ccccc34)[C@@](C(=O)OC)(c3cc4c(cc3OC)N(C)[C@H]3[C@@](O)(C(=O)OC)[C@H](OC(C)=O)[C@]5(CC)C=CCN6CC[C@]43[C@@H]65)C2)C1` [Vinblastine, vinblastine]: the GI50 at 48 h in series [4] stood at 16 ± 4.7 nM. The 50% growth inhibitory concentration (GI50) in series [6] (SW1573, 48 h) amounted to 0.94 ± 0.35 nM.

As for `COc1cccc2c1C(=O)c1c(O)c3c(c(O)c1C2=O)C[C@@](O)(C(=O)COC(=O)c1ccc(-c2ssc(=S)c2-c2ccccc2)cc1)C[C@@H]3O[C@H]1C[C@H](N)[C@H](O)[C@H](C)O1` [Sdox, 2-((2S,4S)-4-(((2R,4S,5S,6S)-4-amino-5-hydroxy-6-methyltetrahydro-2H-pyran-2-yl)oxy)-2,5,12-trihydroxy-7-methoxy-6,11-dioxo-1,2,3,4,6,11-hexahydrotetracen-2-yl)-2-oxoethyl 4-(4-phenyl-3-thioxo-3H-1,2-dithiol-5-yl)benzoate], the “MDA levels (index of lipid peroxidation)” value in series [9] is “lower increase in the MDA levels”. Also, in series [1] (HepG2, 24 and 48 h of treatment, only at the maximum concentration tested), the “Concentration at which LDH release was increased” value amounted to 10 µM. In addition, the “Lowest concentration at which LDH release was increased” value in series [1] (HepG2, 72 h of treatment) amounted to 4 µM. Further, the 50% inhibitory concentration (IC50) in series [10] was 3100 nM; in series [5], 16500 ± 1010 nM; in [8] (24 h), 8690 ± 310 nM; in series [8] (48 h) it was 3210 ± 160 nM; in series [8] (72 h) it was 1390 ± 30 nM. For the same molecule, the “Effect on hERG currents” value in series [2] (up to 10 μM) is on record as “did not affect”. For the same molecule, the “Release of LDH” value in series [3] was “increased the release of LDH in a concentration-dependent manner”. Further, in series [11], the “Reduced GSH” value was “lower decrease in the reduced GSH”. The GI50 in [4] was 3020 nM; in series [6] (SW1573, 48 h), 873 ± 410 nM. Besides, the “Times less affected by P-gp compared with parent compound Dox” value in series [12] is “ca. 6.5 times”. In series [13] (setting [14]), the “Effect on number of live embryos” value was “ineffective”. Besides, the Embryos alive in series [13] (setting [14]) is on record as about 90%. For the same molecule, the Developmental toxicity entry in series [13] (10 µM, 72 hpf) is given as “did not display developmental toxicity”. Also, the “Concentration above which a precipitate was observed” value in series [13] (zebrafish embryo medium) is over 10 µM.

Turning to `COc1cc2c(c(OC)c1OC)-c1ccc(OC)c(=O)cc1[C@@H](NC(C)=O)CC2` [Colchicine, colchicine], in series [4], the GI50 at 48 h worked out at 2370 nM. Also, the GI50 in series [6] (SW1573, 48 h) turned out to be 67 ± 15 nM.

`CC(=O)O[C@H]1C(=O)[C@@]2(C)[C@H]([C@H](OC(=O)c3ccccc3)[C@]3(O)C[C@H](OC(=O)[C@H](O)[C@@H](NC(=O)c4ccccc4)c4ccccc4)C(C)=C1C3(C)C)[C@]1(OC(C)=O)CO[C@@H]1C[C@@H]2O` [Paclitaxel, paclitaxel] yielded a concentration for 50% growth inhibition (GI50) at 48 h in series [4] of 298 ± 113 nM. In series [6] (SW1573, 48 h), the GI50 stood at 0.53 ± 0.22 nM.

Turning to `CC[C@]1(O)C[C@H]2CN(CCc3c([nH]c4ccccc34)[C@@](C(=O)OC)(c3cc4c(cc3OC)N(C=O)[C@H]3[C@@](O)(C(=O)OC)[C@H](OC(C)=O)[C@]5(CC)C=CCN6CC[C@]43[C@@H]65)C2)C1` [Vincristine, vincristine], in [4] (SW1573/P-gp cells (P-gp-overexpressing variant of SW1573)), the concentration for 50% growth inhibition (GI50) at 48 h is 86 ± 15 nM. Also, the concentration for 50% growth inhibition (GI50) in series [6] (SW1573, w/o verapamil, 48 h exposure, mean ± SD (n = 3–5), read-out: GI50) was found to be 3.9 ± 1.5 nM.
